Marks after values point to notes of the source that are not given here. Each block holds one molecule with its values, some of them ahead of it.
Tests used:
[1] = In vitro skin permeation, Franz cell pseudo-finite dose study (acyclovir and CF); assay type: in vitro ADME, human; settings: for Amount in receptor after 60 min: Zovirax cream spiked with 3H-ACV; for EF: acyclovir, vs untreated skin
Description: Zovirax® spiked with ^3H-ACV was used as the formulation for the entire study. Briefly, 300 μl of ^3H ACV was placed into a 1.5 ml centrifuge tube and evaporated off, over a stream of air. Approximately 1 g of Zovirax® was weighed into the centrifuge tube and carefully mixed with a fine spatula to achieve a homogenous mix. To test for homogeneity, 3 random samples (top, middle and bottom) were taken and determined for radioactivity via scintillation counting.
(§1) Anodal treatment was conducted by placing the anode electrode in the donor compartment and the opposite electrode (cathode) in the receptor compartment of the Franz cell. Cathodal iontophoresis was conducted vice versa. The current treatment protocols employed were either • (a) iontophoresis: dose was administered simultaneously with current or • (b) post-iontophoresis: dose applied immediately after skin exposure to current. • A current intensity of 0.40 mA was employed for a 10 min period during both protocols. Novel Device (Rotatinig Brush) Procedure
Finite dose permeation experiments were performed using similar conditions as described above. The Franz cell studies were carried out without the use of a donor well, in order to allow for the placement of the iontophoretic device over the epidermal membrane. […] The effectiveness of the seal was confirmed if leakage of receptor fluid from the region of contact between skin and adhesive was not observed.
A formulation with a target dose of approximately 9±1 mg/cm^2 (ACV) and 20±2 mg/cm^2 (CF) was applied to the epidermal membrane surface using a previously calibrated positive displacement pipette. Selected control experiments were then performed as described above (anodal and cathodal iontophoresis was performed by simultaneous application of dose and current over a 10 min period for CF and ACV respectively). At certain time intervals 200 μl of the receiver fluid was carefully withdrawn from the receiver fluid (maximum duration of 4 h). Approximately 4 ml of scintillation cocktail was then added and the ACV sample analysed by scintillation counting, whereas the other penetrant was assayed via the HPLC method already described.

[2] = In vitro skin permeation, Franz cell infinite dose study (optimisation studies with MP, BP, CF); settings: CF; for EF enhancement factor: flux vs untreated skin
[3] = In vitro skin permeation of angiotensin II, Franz cell infinite dose, EIA analysis; assay type: in vitro ADME, human
Description: Analysis of the peptide was carried out using an enzyme immunoassay (EIA) as described in the EIA booklet. Briefly, a competitive enzyme immunoassay which detects Ang II in biological matrices was employed. The principle of the assay is based upon the competition for antibody binding sites between biotinylated and non-biotinylated peptides. The biotin group on the biotinylated peptide is then conjugated to SA-HRP which in turn reacts with another substrate ([…]) leading to the formation of colour. The absorbance recorded from each well is a direct measure of the extent of binding for each peptide with the antibody. Absorbance was measured using a spectrophotometer. The method was validated by calibrating the response at different concentrations of the peptide (data not shown) and also the ability of the method to assess different concentrations of the penetrant in the presence of any matrices was investigated.
as §1, with “This is a well established physical method of enhancing skin permeation, in vitro, which involves the use of electric current to permeabilise skin and/or promote the migration of drug ions across skin (Cullander, 1992; Guy et al., 2001; Kalia et al., 2004). Anodal” for “Anodal”

[4] = Table 4a, brush A 450 Nm^−2/20 s, 80 rpm
[5] = Table 4a, brush A 450 Nm^−2/45 s, 80 rpm
[6] = Table 4a, brush A 1200 Nm^−2/45 s, 80 rpm
[7] = Table 5a, EtOH/PBS (50% ethanol donor solution)
[8] = Table 5a, brush A 450 Nm^−2, 45 s, 80 rpm
[9] = Table 5a, brush B 300 Nm^−2, 15 s, 80 rpm
[10] = Table 5a, brush B 300 Nm^−2, 25 s, 80 rpm
[11] = brush B 10 s, 300 Nm^−2, 80 rpm
[12] = brush B 30 s, 300 Nm^−2, 80 rpm
[13] = brush B 60 s, 300 Nm^−2, 80 rpm

Structure (SMILES): Cn1c(=O)c2c(ncn2C)n(C)c1=O [CF, Caffeine]
Amount of CF in receptor after 30 min compared with other methods of enhancement ([1]; pseudo-finite dose, brush B 300 Nm^−2/25 s): at least double | Amount of CF deposited in receptor compartment compared with untreated skin ([1]; pseudo-finite dose, chemical enhancement method (50% ethanol)): not to be significantly different | Time after which presence of CF in receptor was determined ([1]; pseudo-finite dose, untreated skin and chemical enhancement, limit of detection 0.05 ug/ml): 120 min | Reduction of lag times relative to original value ([2]; brush A, altering pressure or duration of treatment): ~75% | KP permeability coefficient [2, 4]: 5.04 ± 1.30 10^−8 cm/s | TL lag time [2, 4]: 68.33 ± 17.76 min | EF enhancement factor [2, 4]: 1.47 | JS flux ([2]; Table 4a, brush A 450 Nm^−2/20 s, 80 rpm, n = 2): 10.3 ± 2.67^p 10^−4 μg/cm/s | JS flux [2, 5]: 16.3 ± 0.86* 10^−4 μg/cm/s | KP permeability coefficient [2, 5]: 7.95 ± 0.42 10^−8 cm/s | TL lag time [2, 5]: 41.21 ± 8.09 min | EF enhancement factor [2, 5]: 2.34 | JS flux [2, 6]: 18.4 ± 8.93* 10^−4 μg/cm/s | KP permeability coefficient [2, 6]: 8.97 ± 4.06 10^−8 cm/s | TL lag time [2, 6]: 16.74 ± 6.50 min | EF enhancement factor [2, 6]: 2.64 | JS flux ([2]; Table 4a, delipidised skin): 52.25 ± 25.17* 10^−4 μg/cm/s | KP permeability coefficient ([2]; Table 4a, delipidised skin): 25.66 ± 12.28 10^−8 cm/s | TL lag time ([2]; Table 4a, delipidised skin): 4.19 ± 1.39 min | EF enhancement factor ([2]; Table 4a, delipidised skin): 7.47 | KP permeability coefficient ([2]; Table 4a, untreated skin): 3.39 ± 0.75 10^−8 cm/s | TL lag time ([2]; Table 4a, untreated skin): 77.66 ± 12.96 min | KP permeability coefficient [2, 7]: 141.4 ± 31.21 10^−8 cm/s | TL lag time [2, 7]: 26.71 ± 9.26 min | EF enhancement factor ([2]; Table 5a, EtOH/PBS): 15.46 | JS flux [2, 8]: 8.52 ± 0.29* 10^−4 μg/cm/s | KP permeability coefficient [2, 8]: 41.61 ± 14.19 10^−8 cm/s | TL lag time [2, 8]: 16.74 ± 3.99 min | EF enhancement factor [2, 8]: 4.55 | KP permeability coefficient [2, 9]: 342.4 ± 170.1 10^−8 cm/s | EF enhancement factor [2, 9]: 37.41 | KP permeability coefficient [2, 10]: 589.93 ± 207.62 10^−8 cm/s | EF enhancement factor [2, 10]: 64.44 | KP permeability coefficient ([2]; Table 5a, delipidised skin): 99.68 ± 26.84 10^−8 cm/s | EF enhancement factor ([2]; Table 5a, delipidised skin): 10.93 | TL lag time ([2]; Table 5a, untreated skin): 19.69 ± 3.54 min

Amount in receptor after 60 min [1, 11]: 5.06 ± 1.88 µg/cm^2 | Amount in receptor after 60 min [1, 12]: 12.5 ± 4.02 µg/cm^2 | Amount in receptor after 60 min [1, 13]: 30.91 ± 5.45 µg/cm^2 | Amount in receptor after 60 min ([1]; cathodal iontophoresis 10 min, 0.40 mA): 4.95 ± 2.35 µg/cm^2 | Amount in receptor after 60 min ([1]; untreated skin): 0.14 ± 0.08 µg/cm^2 | EF [1, 11]: 36 | EF [1, 12]: 89 | EF [1, 13]: 220 | EF ([1]; cathodal iontophoresis 10 min): 35 | Increase in enhancement factor compared to iontophoresis ([1]; brush B at maximum treatment time (60 s)): ca. 600%
Structure (SMILES): Nc1nc2c(ncn2COCCO)c(=O)[nH]1 [acyclovir, Acyclovir]

EF ([3]; 4 h, delipidisation vs untreated skin): 58 | EF ([3]; 4 h, post-iontophoresis vs untreated skin): 1.7 | EF ([3]; 4 h, rotating brush (brush B) vs untreated skin): 72 | EF ([3]; 4 h, tape-stripping vs untreated skin): 53 | EF ([3]; 24 h, delipidisation vs untreated skin): 49 | EF ([3]; 24 h, post-iontophoresis vs untreated skin): 6 | EF ([3]; 24 h, rotating brush (brush B) vs untreated skin): 63 | EF ([3]; 24 h, tape-stripping vs untreated skin): 27 | Amount in receptor after 4 h ([3]; delipidisation): 15.71 ± 2.85 ng/cm^2 | Amount in receptor after 24 h ([3]; delipidisation): 83.03 ± 24.28 ng/cm^2 | Amount in receptor after 24 h ([3]; post-iontophoresis): 10.02 ± 6.28 ng/cm^2 | Amount in receptor after 4 h ([3]; post-iontophoresis, value on sample re-analysis): 0.46 ± 0.15^+ ng/cm^2 | Amount in receptor after 4 h ([3]; rotating brush (brush B)): 19.45 ± 0.55 ng/cm^2 | Amount in receptor after 24 h ([3]; rotating brush (brush B)): 107.49 ± 19.66 ng/cm^2 | Amount in receptor after 4 h ([3]; tape-stripping): 14.44 ± 4.73 ng/cm^2 | Amount in receptor after 24 h ([3]; tape-stripping): 46.93 ± 15.62 ng/cm^2 | Amount in receptor after 4 h ([3]; untreated skin, 1 mg/ml in PBS): 0.27 ± 0.23 ng/cm^2 | Amount in receptor after 24 h ([3]; untreated skin, 1 mg/ml in PBS): 1.69 ± 1.01 ng/cm^2
Structure (SMILES): CC[C@H](C)[C@H](NC(=O)[C@H](Cc1ccc(O)cc1)NC(=O)[C@@H](NC(=O)[C@H](CCCNC(=N)N)NC(=O)[C@@H](N)CC(=O)O)C(C)C)C(=O)N[C@@H](Cc1cnc[nH]1)C(=O)N1CCC[C@H]1C(=O)N[C@@H](Cc1ccccc1)C(=O)O [Ang II, Angiotensin II]

Source: patent publication US20060130266A1, “Dermal drug delivery system” (priority 2004, published 2006)
